Assay: Stability studies of CBD prepared via Protocol 3 (crude, pure, 2x recrystallized; 5° C., 25° C./60% RH, 40° C./75% RH)
Format: physicochemical

Structure (SMILES): C=C(C)[C@@H]1CCC(C)=C[C@H]1c1c(O)cc(CCCCC)cc1O [Crude CBD]
- Appearance (25° C./60% RH, 0 month): White
- Assay by HPLC (25° C./60% RH, 0 month): 99.9%
- Each unspecified impurity: RRT~1.540 (25° C./60% RH, 0 month): 0.06%
- Each unspecified impurity: RRT~1.690 (25° C./60% RH, 0 month): 0.11%
- Related substances by HPLC (low level): Δ9-Tetrahydrocannabinol (25° C./60% RH, 0 month): 26 ppm
- Related substances by HPLC: 4-Monobromo-CBD (25° C./60% RH, 0 month): <0.03% (0.02%)
- Related substances by HPLC: Olivetol (25° C./60% RH, 0 month): <0.03% (ND)
- Related substances by HPLC: Sum of impurities, ≥0.05% (25° C./60% RH, 0 month): 0.17%
- Related substances by HPLC: Δ9-Tetrahydrocannabinol (25° C./60% RH, 0 month): <0.02% (ND)
- Appearance (25° C./60% RH, 1 month): Off-White
- Assay by HPLC (25° C./60% RH, 1 month): 98.2%
- Each unspecified impurity: RRT~1.927 (25° C./60% RH, 1 month): 0.07%
- Each unspecified impurity: RRT~2.146 (25° C./60% RH, 1 month): 0.12%
- Related substances by HPLC (low level): Δ8-Tetrahydrocannabinol (25° C./60% RH, 1 month): 6 ppm
- Related substances by HPLC (low level): Δ9-Tetrahydrocannabinol (25° C./60% RH, 1 month): 29 ppm
- Related substances by HPLC: 4-Monobromo-CBD (25° C./60% RH, 1 month): <0.03% (0.02)
- Related substances by HPLC: Olivetol (25° C./60% RH, 1 month): <0.03% (ND)
- Related substances by HPLC: Sum of impurities, ≥0.05% (25° C./60% RH, 1 month): 0.19%
- Related substances by HPLC: Δ8-Tetrahydrocannabinol (25° C./60% RH, 1 month): <0.02% (ND)
- Related substances by HPLC: Δ9-Tetrahydrocannabinol (25° C./60% RH, 1 month): <0.02% (ND)
- Appearance (25° C./60% RH, 2 months): Off-White
- Assay by HPLC (25° C./60% RH, 2 months): 99.5%
- Each unspecified impurity: RRT~1.931 (25° C./60% RH, 2 months): 0.06%
- Each unspecified impurity: RRT~2.151 (25° C./60% RH, 2 months): 0.09%
- Related substances by HPLC (low level): Δ8-Tetrahydrocannabinol (25° C./60% RH, 2 months): 5 ppm
- Related substances by HPLC (low level): Δ9-Tetrahydrocannabinol (25° C./60% RH, 2 months): 27 ppm
- Related substances by HPLC: 4-Monobromo-CBD (25° C./60% RH, 2 months): <0.03% (0.02%)
- Related substances by HPLC: Olivetol (25° C./60% RH, 2 months): <0.03% (0.02%)
- Related substances by HPLC: Sum of impurities, ≥0.05% (25° C./60% RH, 2 months): 0.15%
- Related substances by HPLC: Δ8-Tetrahydrocannabinol (25° C./60% RH, 2 months): <0.02% (ND)
- Related substances by HPLC: Δ9-Tetrahydrocannabinol (25° C./60% RH, 2 months): <0.02% (ND)
- Appearance (25° C./60% RH, 3 months): Off-white
- Assay by HPLC (25° C./60% RH, 3 months): 98.1%
- Each unspecified impurity: RRT~1.983 (25° C./60% RH, 3 months): 0.05%
- Each unspecified impurity: RRT~2.260 (25° C./60% RH, 3 months): 0.10%
- Related substances by HPLC (low level): Δ8-Tetrahydrocannabinol (25° C./60% RH, 3 months): 8 ppm
- Related substances by HPLC (low level): Δ9-Tetrahydrocannabinol (25° C./60% RH, 3 months): 13 ppm
- Related substances by HPLC: 4-Monobromo-CBD (25° C./60% RH, 3 months): <0.03% (0.02%)
- Related substances by HPLC: Olivetol (25° C./60% RH, 3 months): <0.03% (ND)
- Related substances by HPLC: Sum of impurities, ≥0.05% (25° C./60% RH, 3 months): 0.15%
- Related substances by HPLC: Δ8-Tetrahydrocannabinol (25° C./60% RH, 3 months): <0.02% (ND)
- Related substances by HPLC: Δ9-Tetrahydrocannabinol (25° C./60% RH, 3 months): <0.02% (ND)
- Appearance (40° C./75% RH, 0 month): White
- Assay by HPLC (40° C./75% RH, 0 month): 99.9%
- Each unspecified impurity: RRT~1.540 (40° C./75% RH, 0 month): 0.06%
- Each unspecified impurity: RRT~1.690 (40° C./75% RH, 0 month): 0.11%
- Related substances by HPLC (low level): Δ9-Tetrahydrocannabinol (40° C./75% RH, 0 month): 26 ppm
- Related substances by HPLC: 4-Monobromo-CBD (40° C./75% RH, 0 month): <0.03% (0.02%)
- Related substances by HPLC: Olivetol (40° C./75% RH, 0 month): <0.03% (ND)
- Related substances by HPLC: Sum of impurities, ≥0.05% (40° C./75% RH, 0 month): 0.17%
- Related substances by HPLC: Δ9-Tetrahydrocannabinol (40° C./75% RH, 0 month): <0.02% (ND)
- Appearance (40° C./75% RH, 1 month): Yellow Powder
- Assay by HPLC (40° C./75% RH, 1 month): 98.7%
- Each unspecified impurity: RRT~1.928 (40° C./75% RH, 1 month): 0.06%
- Each unspecified impurity: RRT~2.150 (40° C./75% RH, 1 month): 0.11%
- Related substances by HPLC (low level): Δ8-Tetrahydrocannabinol (40° C./75% RH, 1 month): 7 ppm
- Related substances by HPLC (low level): Δ9-Tetrahydrocannabinol (40° C./75% RH, 1 month): 28 ppm
- Related substances by HPLC: 4-Monobromo-CBD (40° C./75% RH, 1 month): <0.03% (0.02)
- Related substances by HPLC: Olivetol (40° C./75% RH, 1 month): <0.03% (ND)
- Related substances by HPLC: Sum of impurities, ≥0.05% (40° C./75% RH, 1 month): 0.17%
- Related substances by HPLC: Δ8-Tetrahydrocannabinol (40° C./75% RH, 1 month): <0.02% (ND)
- Related substances by HPLC: Δ9-Tetrahydrocannabinol (40° C./75% RH, 1 month): <0.02% (ND)
- Appearance (40° C./75% RH, 2 months): Off-White
- Assay by HPLC (40° C./75% RH, 2 months): 99.6%
- Each unspecified impurity: RRT~1.931 (40° C./75% RH, 2 months): 0.06%
- Each unspecified impurity: RRT~2.151 (40° C./75% RH, 2 months): 0.07%
- Related substances by HPLC (low level): Δ8-Tetrahydrocannabinol (40° C./75% RH, 2 months): 4 ppm
- Related substances by HPLC (low level): Δ9-Tetrahydrocannabinol (40° C./75% RH, 2 months): 27 ppm
- Related substances by HPLC: 4-Monobromo-CBD (40° C./75% RH, 2 months): <0.03% (0.02)
- Related substances by HPLC: Olivetol (40° C./75% RH, 2 months): <0.03% (ND)
- Related substances by HPLC: Sum of impurities, ≥0.05% (40° C./75% RH, 2 months): 0.13%
- Related substances by HPLC: Δ8-Tetrahydrocannabinol (40° C./75% RH, 2 months): <0.02% (ND)
- Related substances by HPLC: Δ9-Tetrahydrocannabinol (40° C./75% RH, 2 months): <0.02% (ND)
- Appearance (40° C./75% RH, 3 months): Off-white
- Assay by HPLC (40° C./75% RH, 3 months): 99.0%
- Each unspecified impurity: RRT~1.982 (40° C./75% RH, 3 months): 0.05%
- Each unspecified impurity: RRT~2.258 (40° C./75% RH, 3 months): 0.09%
- Related substances by HPLC (low level): Δ8-Tetrahydrocannabinol (40° C./75% RH, 3 months): 8 ppm
- Related substances by HPLC (low level): Δ9-Tetrahydrocannabinol (40° C./75% RH, 3 months): 17 ppm
- Related substances by HPLC: 4-Monobromo-CBD (40° C./75% RH, 3 months): <0.03% (0.02)
- Related substances by HPLC: Olivetol (40° C./75% RH, 3 months): <0.03% (ND)
- Related substances by HPLC: Sum of impurities, ≥0.05% (40° C./75% RH, 3 months): 0.14%
- Related substances by HPLC: Δ8-Tetrahydrocannabinol (40° C./75% RH, 3 months): <0.02% (ND)
- Related substances by HPLC: Δ9-Tetrahydrocannabinol (40° C./75% RH, 3 months): <0.02% (ND)
- Appearance (40° C./75% RH, 5 months): Beige/off-
- Assay by HPLC (40° C./75% RH, 5 months): 98.6%
- Each unspecified impurity: Methadienol deg-1 (40° C./75% RH, 5 months): deg-1: 0.03%
- Each unspecified impurity: RRT~0.956 (40° C./75% RH, 5 months): 0.04%
- Each unspecified impurity: RRT~1.918 (40° C./75% RH, 5 months): 0.05%
- Related substances by HPLC (low level): Δ8-Tetrahydrocannabinol (40° C./75% RH, 5 months): 36 ppm
- Related substances by HPLC (low level): Δ9-Tetrahydrocannabinol (40° C./75% RH, 5 months): 24 ppm
- Related substances by HPLC: 4-Monobromo-CBD (40° C./75% RH, 5 months): <0.03% (ND)
- Related substances by HPLC: Olivetol (40° C./75% RH, 5 months): <0.03% (ND)
- Related substances by HPLC: Sum of impurities, ≥0.05% (40° C./75% RH, 5 months): 0.05%
- Related substances by HPLC: Δ8-Tetrahydrocannabinol (40° C./75% RH, 5 months): <0.02% (ND)
- Related substances by HPLC: Δ9-Tetrahydrocannabinol (40° C./75% RH, 5 months): <0.02% (ND)

Reference: US12144795B2, “Cannabidiol compositions having modified cannabinoid profiles” (priority 2018, dated 2024)
